The record followed here is patent US11242344B2, “(4-hydroxypyrrolidin-2-yl)-heterocyclic compounds and methods of use thereof” (Genentech, Inc., priority 2017, dated 2022).

For one assay, the system named is MYC expression. The assay is described as follows: Inhibition of MYC expression in MV-4-11 cells. Conditions: 4 h; for IC50: QuantiGene 2.0, geometric mean; for Maximum Inhibition (%): maximum inhibition of MYC expression. It counts as cell-based. The protocol:
Pharmacologic inhibition of MYC is achievable through targeting BET bromodomains through small molecule binder or degrader mechanisms. Such inhibitors may have clinical utility given the widespread pathogenetic role of MYC in cancer. See, e.g., Mertz J, et al., “Targeting MYC dependence in cancer by inhibiting BET bromodomains,” (2011) Proc. Natl. Acad. Sci. USA, Vol. 108 (40), pp. 16669-16674.
To determine the inhibition of MYC expression, MV-4-11 cells (ATCC) were plated at 10,000 cells per well in 96-well plates in RPMI1640 media supplemented with 10% fetal bovine serum and 2 mM L-glutamine. Test compounds diluted in DMSO were transferred to the cell plates, keeping final DMSO concentration consistent at 0.1%, and incubated for 4 h at 37° C. Lysis and analysis for MYC expression were carried out using QuantiGene 2.0 reagents (Affymetrix/eBioscience, probe set cat #SA-50182) and following the vendor's instructions. Luminescence was read using an EnVision plate reader (PerkinElmer) and IC50s generated in Genedata Screener using a 4-parameter non-linear regression fit.
Effective degraders will surpass this and inhibit >95% of MYC, thus following the maximum inhibition within this assay provides valuable SAR. Where more than one measurement was performed for the same assay, the value reported is the geometric mean of all values.

Another assay concerns the target BRD4 (Homo sapiens (Human), UniProt O60885). The assay is described as follows: BRD4 degradation assay in EOL-1 cells, high content fluorescence imaging. It counts as cell-based. The settings on record: 4 hours; for DC50: BRD4 immunofluorescence, read-out: EOL-1 EC50. The protocol:
PC3 (Steap-1) prostate cancer cells: PC3 (Steap-1) prostate cancer cells (PC3 cells overexpressing the surface protein Steap-1) were seeded on day 1 at a density of 200,000 cells/mL in 45 μl/well in cell plates in a 384 well Greiner/Perkin Elmer Cell Carrier TC Treated plate (part #6007430) in Assay Medium (RPMI, 10% FBS, 2 mM Glutamax). Cells were incubated overnight at 37° C. degrees. On day 2, compounds were serially diluted 3-fold in DMSO spanning the concentrations 10 mM to 8.6 nM, in 384 well clear polypropylene plates (Greiner Cat #781201). DMSO and 10 mM of a control PROTAC (dBET1, as described in WO 2017/024317, p. 235, structure below) (control compound) were added to designated wells. Compounds and controls were diluted 50-fold (2 μl of DMSO stock into 98 μl) into Assay Medium. 5 μl of the diluted compounds was transferred to the cell plates. The final top concentration of the test compounds in the cell plates was 20 μM. Cell plates were incubated at 37° C., for 4 hours. Fixation and permeabilization were carried out using a Biotek EL406 plate washer and dispenser as follows. Cells were fixed by addition of 15 μL of 16% paraformaldehyde (Electron Microscopy Sciences #15710-S) directly to the 50 μL cell culture medium in each well using the peristaltic pump 5 μL cassette on a Biotek EL406 (final concentration of formaldehyde was 3.7% w/v). Samples were incubated 30 minutes. Well contents were aspirated and 50 μL/well of Phosphate Buffered Saline (PBS) containing 0.5% w/v bovine serum albumen, 0.5% v/v Triton X-100 (Antibody Dilution Buffer) was added to each well. Samples were incubated for 30 minutes. Well contents were aspirated and washed 3 times with 100 μL/well of PBS.
EOL-1 cells: The BRD4 degradation assay was performed on EOL-1 cells using the same procedure as described above for PC3 (Steap-1) prostate cancer cells, except EOL-1 cells were seeded at 1,000,000 cells/mL. Following aspiration and washing of the well contents with 100 μL/well of PBS, 40 μL PBS plus 10% normal goat serum was added per well for 20 minutes at room temperature.
For both the PC3 and EOL-1 cell assays, immunofluorescence staining of BRD4 was carried out using a Biotek EL406 plate washer and dispenser as follows. The well supernatant was aspirated from the wells and 25 μL/well of rabbit mAb Anti-BRD4 [EPR5150(2)] abeam 128874 diluted 1:500 in Antibody Dilution Buffer is dispensed. Samples were incubated for 2 hours at room temperature. Samples were washed 4 times with 100 μL/well of PBS. 25 μL/well of secondary antibody solution (Goat Anti-Rabbit IgG, DyLight 488 Conjugated Highly Cross-adsorbed #35553 1:1000) diluted 1:1000 and Hoechst 33342 1 μg/ml diluted in Antibody Dilution Buffer) were dispensed into each well. 16 wells of the plate, which were designated as ‘no primary antibody” wells, received only Antibody Dilution Buffer (without anti-BRD4 antibody). Samples were incubated for 2 hours at room temperature. Samples were washed 3 times with 100 μL/well of PBS using a Biotek EL406. Quantitative fluorescence imaging of BRD4 was carried out using a Phenix (Perkin Elmer). Fluorescence images of the samples (Channel 1: Hoechst33342 (DNA stain); Channel 2: 488 nm (BRD4 stain)) were acquired. Channel 1 (DNA stain) was used to define the “Region of Interest” (ROI) nuclear region. Measurements of BRD4 average immunofluorescence intensity within the ROI (nuclear region), were made on a per cell basis and averaged over all the measured cells. Data analysis was carried out using Genedata Screener Software, with DMSO and “no primary antibody” samples being used to define the 0% and 100% changes in BRD4. The “Robust Fit” method was used to define the inflexion point of curve (EC50) and the plateau of the maximal effect (Sinf). The Sinf value reports degradation as percent change in protein level, so complete loss of the protein target is −100%. […]

With `Cc1ncsc1-c1ccc([C@]2(C)NC(C3C[C@@H](O)CN3C(=O)C(c3cc(OCCCCCNC(=O)c4cc5c(cc4CS(C)(=O)=O)-c4cn(C)c(=O)c6[nH]cc(c46)CN5c4ncc(F)cc4F)no3)C(C)C)=NC2=O)cc1` (single isomer, unassigned) [Example 1001.3], in the assay on MYC expression, the IC50 (usually the midpoint of a concentration-inhibition curve) amounted to 27.4 nM and the “Maximum Inhibition (%)” value was 79.2%. The DC50 at BRD4 is > 20000 nM.
Take `Cc1ncsc1-c1ccc([C@]2(C)NC(C3C[C@@H](O)CN3C(=O)C(c3cc(OCCCCCNC(=O)c4cc5c(cc4CS(C)(=O)=O)-c4cn(C)c(=O)c6[nH]cc(c46)CN5c4ncc(F)cc4F)no3)C(C)C)=NC2=O)cc1` (single isomer, unassigned) [Example 1001.2]: in the assay on MYC expression, inhibition was half-maximal at 1.71 nM (IC50) and the “Maximum Inhibition (%)” value is 98.4%. Moreover, the DC50 at BRD4 is 0.865 nM. The “EOL-1 Sinf (%)” value on BRD4 (maximum degradation, percent change in protein level (-100% = complete loss)) was −96.4%.
As to `Cc1ncsc1-c1ccc([C@]2(C)NC(C3C[C@@H](O)CN3C(=O)C(c3cc(OCCCCCNC(=O)c4cc5c(cc4CS(C)(=O)=O)-c4cn(C)c(=O)c6[nH]cc(c46)CN5c4ncc(F)cc4F)no3)C(C)C)=NC2=O)cc1` (single isomer, unassigned) [Example 1001.1], in the assay on MYC expression, the IC50 is 17.4 nM and the “Maximum Inhibition (%)” value was determined as 82.3%. Also, the DC50 at BRD4 is > 20000 nM.
For the compound `Cc1ncsc1-c1ccc([C@]2(C)NC(C3C[C@@H](O)CN3C(=O)[C@@H](NC(=O)CCCCCCCCCCNC(=O)c3cc4c(cc3CS(C)(=O)=O)-c3cn(C)c(=O)c5[nH]cc(c35)CN4c3ncc(F)cc3F)C(C)(C)C)=NC2=O)cc1` (single isomer, unassigned) [Example 1005.1], on BRD4, the DC50 was > 20000 nM.
